The source of these data is publication PMC10580383, “Development of Melanocortin 4 Receptor Agonists by Exploiting Animal-Derived Macrocyclic, Disulfide-Rich Peptide Scaffolds” (ACS Pharmacology & Translational Science, 2023).

In assay [1] the target is T1, mouse melanocortin 4 receptor (MC4R) (Mus musculus, UniProt P56450).
T1 construct: expressed in transfected cells; host or cells: HEK293 / HEK293T, transient transfection
Kind of assay: cAMP second messenger quantification assay (Cisbio HTRF cAMP Gs kit). It counts as cell-based. As to the method: Figure 3 Functional cAMP assay of synthesized peptide analogues targeting MC4R. The accumulation of adenylyl cyclase-catalyzed cAMP of (A) tachylplesin-1-like peptides (Ta1LPs, green), (B) protegrin-4-like peptides ([…], pink), (C) arenicin-3-like peptides (Ar3LPs, orange), and (D) gomesin-like peptides (GoLPs, blue) was measured in HEK293 cells transiently expressing mouse melanocortin 4 receptor (MC4R). […] Data are from three independent experiments and are shown as mean ± SEM.
Assays were performed on cells transiently expressing mouse MC4R-EGFP. BamHI and SacI restriction sites were used to clone mouse MC4R N-terminally into a pEGFP-N1 vector. Peptide ligands were assayed for […] in a 384-well format and triplicate according to the Cisbio protocol. Briefly, 5 μL containing 10,000 cells per well was incubated with 5 μL of peptide solutions prepared 2× in 1× stimulation buffer. Following an incubation of peptide ligands at 37 °C for 30 min, d2-labeled cAMP and cryptate-labeled antibody (5 μL of each) were added to the mixture and further incubated for at least 1 h at room temperature. Subsequently, cAMP levels were quantified on a Flexstation 3 (Molecular Devices, San Jose, USA) using homogeneous time-resolved fluorescence resonance energy transfer and the ratio 665/620 nm. Samples were measured in technical triplicates.
Data analysis was performed with GraphPad Prism (GraphPad Software, San Diego). The potency (EC50) and maximum efficacy (Emax) values of peptide ligands were derived from functional data fitted to three- or four-parameter nonlinear regression curves constrained to a bottom of zero.
(In general: Time-resolved FRET reads energy transfer from a long-lived donor to a nearby acceptor.)

In assay [2] the target is mouse melanocortin 4 receptor fused to EGFP (mouse) (UniProt P56450).
mouse melanocortin 4 receptor fused to EGFP (mouse), sequence (P56450 whole entry, the tested form may be a part): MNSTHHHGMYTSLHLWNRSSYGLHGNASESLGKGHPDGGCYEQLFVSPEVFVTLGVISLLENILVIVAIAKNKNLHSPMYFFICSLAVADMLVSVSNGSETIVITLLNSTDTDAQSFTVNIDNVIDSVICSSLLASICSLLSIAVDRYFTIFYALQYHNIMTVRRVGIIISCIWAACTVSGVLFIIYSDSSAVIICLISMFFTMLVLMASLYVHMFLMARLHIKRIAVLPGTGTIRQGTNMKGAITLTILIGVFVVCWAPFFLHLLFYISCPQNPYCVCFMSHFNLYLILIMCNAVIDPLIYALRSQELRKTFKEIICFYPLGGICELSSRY
Setting [3] is: HEK293, read-out: efficacy cAMP Emax ± SD.

Like-named read-outs stand apart in the source and are kept apart here. Where a SMILES comes first, the peptide text is derived from it. Bridges are numbered along the chain shown (N, C = ends). Where no end group is shown, it is not given here. [ ]: non-standard residue; d: D form. pGlu = O=C1CC[C@@H](C(=O)O)N1

T1 sequence (P56450 whole entry): as the sequence (P56450 whole entry, the tested form may be a part) above

One may read the EC50 as the concentration giving half of the maximal effect. Read a high EC50 as weaker potency. One may read the Emax as the greatest response seen or fitted, relative to the assay's reference. `CC(C)[C@@H]1NC(=O)[C@H](CCCNC(=N)N)NC(=O)[C@H](Cc2c[nH]c3ccccc23)NC(=O)[C@H](Cc2c[nH]cn2)NC(=O)[C@@H](Cc2ccccc2)NC(=O)[C@H](Cc2c[nH]cn2)NC(=O)[C@@H]2CCCN2C(=O)[C@H](C(C)C)NC(=O)[C@@H]2CSSC[C@H](NC1=O)C(=O)N[C@@H](Cc1ccc(O)cc1)C(=O)N[C@@H](CCCNC(=N)N)C(=O)N[C@@H](CCCNC(=N)N)C(=O)N[C@H](C(=O)N[C@@H](CC(N)=O)C(N)=O)CSSC[C@H](NC(=O)[C@H](Cc1ccccc1)NC(=O)CN)C(=O)N[C@@H](Cc1c[nH]c3ccccc13)C(=O)N[C@@H](Cc1ccc(O)cc1)C(=O)N[C@@H](C(C)C)C(=O)N2` [Ar3LP3] (H-GFCWYVCVPH[dF]HWRVCYRRCN-NH2; disulfide 3-20, 7-16) had an EC50 in assay [1] of 1000 nM. In addition, the Emax in assay [1] (HEK293; read-out: efficacy cAMP Emax ± SD) amounted to 117 ± 18%.
In assay [2], NDP-α-MSH (peptide) came in with a cAMP accumulation (Cisbio HTRF) in HEK293 cells transiently expressing mouse MC4R-EGFP: EC50 of 0.04 nM and a cAMP accumulation (Cisbio HTRF) in HEK293 cells transiently expressing mouse MC4R-EGFP: Emax (normalised to NDP-α-MSH) of 100%.
With `CC(C)C[C@@H]1NC(=O)[C@H](CCCNC(=N)N)NC(=O)[C@H](CCCNC(=N)N)NC(=O)[C@@H](NC(=O)[C@@H]2CCC(=O)N2)CSSC[C@@H](C(=O)N[C@@H](CCCNC(=N)N)C(=O)NCC(=O)N[C@@H](CCCNC(=N)N)C(N)=O)NC(=O)[C@H](Cc2ccc(O)cc2)NC(=O)[C@H]([C@@H](C)O)NC(=O)[C@H](C(C)C)NC(=O)[C@@H]2CSSC[C@H](NC1=O)C(=O)N[C@@H](Cc1c[nH]cn1)C(=O)N[C@H](Cc1ccccc1)C(=O)N[C@@H](CCCNC(=N)N)C(=O)N[C@@H](Cc1c[nH]c3ccccc13)C(=O)N2` [GoLP3] ([pGlu]CRRLCH[dF]RWCVTYCRGR-NH2; disulfide 2-15, 6-11), in assay [1], the concentration giving a half-maximal response (EC50) is 39.8 nM. For the same molecule, in assay [1] (setting [3]), the Emax amounted to 104 ± 5%.
On the same counts, the results for `CC(C)C[C@H](NC(=O)[C@H](CCCNC(=N)N)NC(=O)CNC(=O)CNC(=O)[C@@H](N)CCCNC(=N)N)C(=O)N[C@H]1CSSC[C@@H](C(=O)N[C@H](C(=O)NCC(=O)N[C@@H](CCCNC(=N)N)C(N)=O)C(C)C)NC(=O)[C@H](Cc2ccccc2)NC(=O)[C@@H]2CSSC[C@H](NC(=O)[C@H](Cc3ccc(O)cc3)NC1=O)C(=O)N[C@@H](Cc1c[nH]cn1)C(=O)N[C@H](Cc1ccccc1)C(=O)N[C@@H](Cc1c[nH]cn1)C(=O)N[C@@H](Cc1c[nH]c3ccccc13)C(=O)N2` [Pr4LP2] (H-RGGRLCYCH[dF]HWCFCVGR-NH2; disulfide 6-15, 8-13) are 158 nM and 97 ± 4%.
On the same counts, the results for `CC(C)C[C@H](NC(=O)[C@H](CCCNC(=N)N)NC(=O)CNC(=O)CNC(=O)[C@@H](N)CCCNC(=N)N)C(=O)N[C@H]1CSSC[C@@H](C(=O)N[C@H](C(=O)NCC(=O)N[C@@H](CCCNC(=N)N)C(N)=O)C(C)C)NC(=O)[C@H](Cc2ccccc2)NC(=O)[C@@H]2CSSC[C@H](NC(=O)[C@H](Cc3ccc(O)cc3)NC1=O)C(=O)N[C@@H](Cc1c[nH]cn1)C(=O)N[C@H](Cc1ccccc1)C(=O)N[C@@H](CCCNC(=N)N)C(=O)N[C@@H](Cc1c[nH]c3ccccc13)C(=O)N2` [Pr4LP3] (H-RGGRLCYCH[dF]RWCFCVGR-NH2; disulfide 6-15, 8-13) are 200 nM and 99 ± 6%.
On the same counts, the results for `CC(C)[C@@H]1NC(=O)[C@H](CCCNC(=N)N)NC(=O)[C@H](Cc2ccccc2)NC(=O)[C@@H](NC(=O)[C@H](Cc2c[nH]c3ccccc23)NC(=O)[C@@H](N)CCCCN)CSSC[C@@H](C(=O)N[C@@H](CCCNC(=N)N)C(N)=O)NC(=O)[C@H](CCCNC(=N)N)NC(=O)[C@H](CCCNC(=N)N)NC(=O)[C@H](Cc2ccc(O)cc2)NC(=O)[C@@H]2CSSC[C@H](NC1=O)C(=O)N[C@@H](Cc1c[nH]cn1)C(=O)N[C@H](Cc1ccccc1)C(=O)N[C@@H](Cc1c[nH]cn1)C(=O)N[C@@H](Cc1c[nH]c3ccccc13)C(=O)N2` [Ta1LP2] (H-KWCFRVCH[dF]HWCYRRCR-NH2; disulfide 3-16, 7-12) are 50.1 nM and 97 ± 6%.
`CC(C)[C@@H]1NC(=O)[C@H](CCCNC(=N)N)NC(=O)[C@H](Cc2ccccc2)NC(=O)[C@@H](NC(=O)[C@H](Cc2c[nH]c3ccccc23)NC(=O)[C@@H](N)CCCCN)CSSC[C@@H](C(=O)N[C@@H](CCCNC(=N)N)C(N)=O)NC(=O)[C@H](CCCNC(=N)N)NC(=O)[C@H](CCCNC(=N)N)NC(=O)[C@H](Cc2ccc(O)cc2)NC(=O)[C@@H]2CSSC[C@H](NC1=O)C(=O)N1CCC[C@H]1C(=O)N[C@@H](Cc1c[nH]cn1)C(=O)N[C@H](Cc1ccccc1)C(=O)N[C@@H](Cc1c[nH]cn1)C(=O)N[C@@H](Cc1c[nH]c3ccccc13)C(=O)N2` [Ta1LP1] (H-KWCFRVCPH[dF]HWCYRRCR-NH2; disulfide 3-17, 7-13): the concentration for a half-maximal effect (EC50) in assay [1] was 20 nM. Besides, the Emax in assay [1] (setting [3]) stood at 97 ± 4%.
The matching figures for `CC(C)[C@@H]1NC(=O)[C@H](CCCNC(=N)N)NC(=O)[C@H](Cc2ccccc2)NC(=O)[C@@H](NC(=O)[C@H](Cc2c[nH]c3ccccc23)NC(=O)[C@@H](N)CCCCN)CSSC[C@@H](C(=O)N[C@@H](CCCNC(=N)N)C(N)=O)NC(=O)[C@H](CCCNC(=N)N)NC(=O)[C@H](CCCNC(=N)N)NC(=O)[C@H](Cc2ccc(O)cc2)NC(=O)[C@@H]2CSSC[C@H](NC1=O)C(=O)N[C@@H](Cc1c[nH]cn1)C(=O)N[C@H](Cc1ccccc1)C(=O)N[C@@H](CCCNC(=N)N)C(=O)N[C@@H](Cc1c[nH]c3ccccc13)C(=O)N2` [Ta1LP3] (H-KWCFRVCH[dF]RWCYRRCR-NH2; disulfide 3-16, 7-12): 16.7 nM and 98 ± 4%.

B1: tachyplesin-1-like peptide 1 (peptide)
peptide: KWCFRVCPH[dF]HWCYRRCR-NH2
modifications: disulfide 7-13, 3-17; N-terminus assumed
SMILES: CC(C)[C@@H]1NC(=O)[C@H](CCCNC(=N)N)NC(=O)[C@H](Cc2ccccc2)NC(=O)[C@@H](NC(=O)[C@H](Cc2c[nH]c3ccccc23)NC(=O)[C@@H](N)CCCCN)CSSC[C@@H](C(=O)N[C@@H](CCCNC(=N)N)C(N)=O)NC(=O)[C@H](CCCNC(=N)N)NC(=O)[C@H](CCCNC(=N)N)NC(=O)[C@H](Cc2ccc(O)cc2)NC(=O)[C@@H]2CSSC[C@H](NC1=O)C(=O)N1CCC[C@H]1C(=O)N[C@@H](Cc1c[nH]cn1)C(=O)N[C@H](Cc1ccccc1)C(=O)N[C@@H](Cc1c[nH]cn1)C(=O)N[C@@H](Cc1c[nH]c3ccccc13)C(=O)N2
In assay [2], B1 came in with a cAMP accumulation (Cisbio HTRF) in HEK293 cells transiently expressing mouse MC4R-EGFP: EC50 of 20 nM and a cAMP accumulation (Cisbio HTRF) in HEK293 cells transiently expressing mouse MC4R-EGFP: Emax (normalised to NDP-α-MSH) of 97%.

B2: arenicin-3-like peptide 3 (peptide)
peptide: GFCWYVCVPH[dF]HWRVCYRRCN-NH2
modifications: disulfide 7-16, 3-20; N-terminus assumed
SMILES: CC(C)[C@@H]1NC(=O)[C@H](CCCNC(=N)N)NC(=O)[C@H](Cc2c[nH]c3ccccc23)NC(=O)[C@H](Cc2c[nH]cn2)NC(=O)[C@@H](Cc2ccccc2)NC(=O)[C@H](Cc2c[nH]cn2)NC(=O)[C@@H]2CCCN2C(=O)[C@H](C(C)C)NC(=O)[C@@H]2CSSC[C@H](NC1=O)C(=O)N[C@@H](Cc1ccc(O)cc1)C(=O)N[C@@H](CCCNC(=N)N)C(=O)N[C@@H](CCCNC(=N)N)C(=O)N[C@H](C(=O)N[C@@H](CC(N)=O)C(N)=O)CSSC[C@H](NC(=O)[C@H](Cc1ccccc1)NC(=O)CN)C(=O)N[C@@H](Cc1c[nH]c3ccccc13)C(=O)N[C@@H](Cc1ccc(O)cc1)C(=O)N[C@@H](C(C)C)C(=O)N2
In assay [2], B2 came in with a cAMP accumulation (Cisbio HTRF) in HEK293 cells transiently expressing mouse MC4R-EGFP: EC50 of 1000 nM and a cAMP accumulation (Cisbio HTRF) in HEK293 cells transiently expressing mouse MC4R-EGFP: Emax (normalised to NDP-α-MSH) of 117%.

B3: tachyplesin-1-like peptide 2 (peptide)
peptide: KWCFRVCH[dF]HWCYRRCR-NH2
modifications: disulfide 7-12, 3-16; N-terminus assumed
SMILES: CC(C)[C@@H]1NC(=O)[C@H](CCCNC(=N)N)NC(=O)[C@H](Cc2ccccc2)NC(=O)[C@@H](NC(=O)[C@H](Cc2c[nH]c3ccccc23)NC(=O)[C@@H](N)CCCCN)CSSC[C@@H](C(=O)N[C@@H](CCCNC(=N)N)C(N)=O)NC(=O)[C@H](CCCNC(=N)N)NC(=O)[C@H](CCCNC(=N)N)NC(=O)[C@H](Cc2ccc(O)cc2)NC(=O)[C@@H]2CSSC[C@H](NC1=O)C(=O)N[C@@H](Cc1c[nH]cn1)C(=O)N[C@H](Cc1ccccc1)C(=O)N[C@@H](Cc1c[nH]cn1)C(=O)N[C@@H](Cc1c[nH]c3ccccc13)C(=O)N2
In assay [2], B3 had a cAMP accumulation (Cisbio HTRF) in HEK293 cells transiently expressing mouse MC4R-EGFP: EC50 of 48 nM and a cAMP accumulation (Cisbio HTRF) in HEK293 cells transiently expressing mouse MC4R-EGFP: Emax (normalised to NDP-α-MSH) of 97%.
